Experimental data published in ChEMBL document CHEMBL1201861, “Genomics of Drug Sensitity in Cancer screening data, Wellcome Trust Sanger Institute”.
pIC50: −log10 of the molar value.

Tests used:
Test in all cases: cells
Type in all cases: functional, cell-based, Homo sapiens
Ca9-22 = conditions: Homo sapiens, Ca9-22;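 further: growth inhibition of Ca9-22 cells, read out with a cell viability assay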
Description: SANGER: Inhibition of human Ca9-22 cell growth in a cell viability assay.

SW756 = conditions: Homo sapiens, SW756;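 further: growth inhibition of human SW756 cells, read out with a cell viability assay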
Description: SANGER: Inhibition of human SW756 cell growth in a cell viability assay.

JEG-3 = conditions: Homo sapiens, JEG-3;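 further: growth inhibition of human JEG-3 cells, read out with a cell viability assay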
Description: SANGER: Inhibition of human JEG-3 cell growth in a cell viability assay.

HSC-2 = conditions: Homo sapiens, HSC-2;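 further: growth inhibition of human HSC-2 cells, read out by a cell viability assay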
Description: SANGER: Inhibition of human HSC-2 cell growth in a cell viability assay.

KYSE-450 = conditions: Homo sapiens, KYSE-450;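 further: cell growth inhibition measured by a viability assay in human KYSE-450 cells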
Description: SANGER: Inhibition of human KYSE-450 cell growth in a cell viability assay.

5637 = conditions: Homo sapiens
Description: SANGER: Inhibition of human 5637 cell growth in a cell viability assay.

T-24 = conditions: Homo sapiens, T-24;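 further: growth inhibition of T-24 cells, read out with a cell viability assay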
Description: SANGER: Inhibition of human T-24 cell growth in a cell viability assay.

NCI-H2347 = conditions: Homo sapiens, NCI-H2347;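 further: growth inhibition of the cell line, read out with a cell viability assay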
Description: SANGER: Inhibition of human NCI-H2347 cell growth in a cell viability assay.

NCI-H596 = conditions: Homo sapiens, NCI-H596;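 further: growth inhibition of NCI-H596 cells, read out with a cell viability assay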
Description: SANGER: Inhibition of human NCI-H596 cell growth in a cell viability assay.

CAKI-1 = conditions: Homo sapiens, CAKI-1;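 further: growth inhibition of CAKI-1 cells, measured by a cell viability assay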
Description: SANGER: Inhibition of human CAKI-1 cell growth in a cell viability assay.

LK-2 = conditions: Homo sapiens, LK-2;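 further: growth inhibition of LK-2 cells, read out with a viability assay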
Description: SANGER: Inhibition of human LK-2 cell growth in a cell viability assay.

SCC-25 = conditions: Homo sapiens, SCC-25;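 further: growth inhibition of SCC-25 cells, measured with a cell viability assay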
Description: SANGER: Inhibition of human SCC-25 cell growth in a cell viability assay.

HGC-27 = conditions: Homo sapiens, HGC-27;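 further: growth inhibition of human HGC-27 cells, read out in a cell viability assay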
Description: SANGER: Inhibition of human HGC-27 cell growth in a cell viability assay.

NCI-H630 = conditions: Homo sapiens, NCI-H630;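 further: growth inhibition of NCI-H630 cells, read out with a cell viability assay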
Description: SANGER: Inhibition of human NCI-H630 cell growth in a cell viability assay.

HuP-T3 = conditions: Homo sapiens, HuP-T3;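 further: HuP-T3 cell growth inhibition, read out with a cell viability assay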
Description: SANGER: Inhibition of human HuP-T3 cell growth in a cell viability assay.

COLO-679 = conditions: Homo sapiens, COLO-679
Description: SANGER: Inhibition of human COLO-679 cell growth in a cell viability assay.

Hs-578T = conditions: Homo sapiens, Hs-578T
Description: SANGER: Inhibition of human Hs-578-T cell growth in a cell viability assay.

RO82-W-1 = conditions: Homo sapiens, RO82-W-1;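 further: growth inhibition of human RO82-W-1 cells, measured with a cell viability assay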
Description: SANGER: Inhibition of human RO82-W-1 cell growth in a cell viability assay.

KNS-62 = conditions: Homo sapiens, KNS-62;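 further: inhibition of cell growth, read out with a cell viability assay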
Description: SANGER: Inhibition of human KNS-62 cell growth in a cell viability assay.

MCF7 = conditions: Homo sapiens, MCF7;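 further: growth inhibition of human MCF7 cells, read out with a cell viability assay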
Description: SANGER: Inhibition of human MCF7 cell growth in a cell viability assay.

NCI-H661 = conditions: Homo sapiens, NCI-H661;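 further: cell viability assay read-out, IC50 being the concentration that inhibits growth of the cells by half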
Description: SANGER: Inhibition of human NCI-H661 cell growth in a cell viability assay.

ChaGo-K-1 = conditions: Homo sapiens, ChaGo-K-1;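 further: growth inhibition of ChaGo-K-1 cells, read out with a cell viability assay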
Description: SANGER: Inhibition of human ChaGo-K-1 cell growth in a cell viability assay.

PFSK-1 = conditions: Homo sapiens, PFSK-1;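 further: cell viability assay measuring how strongly compounds suppress growth of human PFSK-1 cells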
Description: SANGER: Inhibition of human PFSK-1 cell growth in a cell viability assay.

AN3-CA = conditions: Homo sapiens, AN3-CA;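 further: growth inhibition of human AN3-CA cells measured by a cell viability assay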
Description: SANGER: Inhibition of human AN3-CA cell growth in a cell viability assay.

UACC-893 = conditions: Homo sapiens, UACC-893
Description: SANGER: Inhibition of human UACC-893 cell growth in a cell viability assay.

NCI-H1437 = conditions: Homo sapiens, NCI-H1437;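 further: growth inhibition of human NCI-H1437 cells, read out by a cell viability assay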
Description: SANGER: Inhibition of human NCI-H1437 cell growth in a cell viability assay.

KYSE-70 cell line = conditions: Homo sapiens, KYSE-70;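 further: cell viability assay read-out, with IC50 expressing suppression of KYSE-70 cell growth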
Description: SANGER: Inhibition of human KYSE-70 cell growth in a cell viability assay.

NCI-H1651 = conditions: Homo sapiens, NCI-H1651;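 further: Read-out is a cell viability assay, with IC50 expressing inhibition of NCI-H1651 cell growth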
Description: SANGER: Inhibition of human NCI-H1651 cell growth in a cell viability assay.

PANC-03-27 = conditions: Homo sapiens, PANC-03-27
Description: SANGER: Inhibition of human PANC-03-27 cell growth in a cell viability assay.

NCI-H727 = conditions: Homo sapiens, NCI-H727;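 further: growth inhibition of human NCI-H727 cells, read out with a cell viability assay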
Description: SANGER: Inhibition of human NCI-H727 cell growth in a cell viability assay.

DMS-273 = conditions: Homo sapiens, DMS-273
Description: SANGER: Inhibition of human DMS-273 cell growth in a cell viability assay.

NCI-H1703 = conditions: Homo sapiens, NCI-H1703;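 further: growth inhibition of NCI-H1703 cells, read out via a cell viability assay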
Description: SANGER: Inhibition of human NCI-H1703 cell growth in a cell viability assay.

Detroit 562 = conditions: Homo sapiens, Detroit 562;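 further: growth inhibition of human Detroit 562 cells, read out by a cell viability assay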
Description: SANGER: Inhibition of human Detroit562 cell growth in a cell viability assay.

8505C = conditions: Homo sapiens, 8505C
Description: SANGER: Inhibition of human 8505C cell growth in a cell viability assay.

HCC1806 = conditions: Homo sapiens, HCC1806;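 further: growth inhibition of the cancer cell line, determined with a cell viability assay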
Description: SANGER: Inhibition of human HCC1806 cell growth in a cell viability assay.

ZR-75-30 = conditions: Homo sapiens, ZR-75-30;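 further: growth inhibition of ZR-75-30 cells, measured with a cell viability readout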
Description: SANGER: Inhibition of human ZR-75-30 cell growth in a cell viability assay.

SW626 = conditions: Homo sapiens, SW626;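 further: growth inhibition of SW626 cells, measured with a cell viability assay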
Description: SANGER: Inhibition of human SW626 cell growth in a cell viability assay.

EVSA-T = conditions: Homo sapiens, EVSA-T;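 further: growth inhibition of EVSA-T cells, read out with a cell viability assay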
Description: SANGER: Inhibition of human EVSA-T cell growth in a cell viability assay.

UMUC3 = conditions: Homo sapiens, UMUC3;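 further: growth inhibition of human UM-UC-3 cells, read out with a cell viability assay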
Description: SANGER: Inhibition of human UM-UC-3 cell growth in a cell viability assay.

Kasumi 1 = conditions: Homo sapiens, Kasumi 1;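 further: growth inhibition of human Kasumi-1 cells, read out by a cell viability assay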
Description: SANGER: Inhibition of human KASUMI-1 cell growth in a cell viability assay.

SMILES	pIC50 (Ca9-22)	pIC50 (SW756)	pIC50 (HSC-2)	pIC50 (KYSE-450)	pIC50 5637	pIC50 (CAKI-1)	pIC50 (LK-2)	pIC50 (SCC-25)	pIC50 (HGC-27)	pIC50 (NCI-H630)	pIC50 (COLO-679)	pIC50 (Hs-578T)	pIC50 (RO82-W-1)	pIC50 (KNS-62)	pIC50 (NCI-H661)	pIC50 (ChaGo-K-1)	pIC50 (PFSK-1)	pIC50 (AN3-CA)	pIC50 (UACC-893)	pIC50 (NCI-H1437)	other results
CC(C)c1ccccc1Cc1cc(C(=O)Nc2ccc(S(=O)(=O)c3ccccc3C(C)(C)C)cc2)c(O)c(O)c1O	8.42	6.95	6.18	6.76	6.26	6.66	5.82	6.28	6.85	6.09	6.63	7.63	6.40	6.25	6.70	6.53	6.75	6.05	5.84	6.27	pIC50 (JEG-3): 6.13; pIC50 (T-24): 6.53; pIC50 (NCI-H2347): 5.91; pIC50 (NCI-H596): 5.48; pIC50 (HuP-T3): 5.89; pIC50 (MCF7): 6.47; pIC50 (KYSE-70 cell line): 5.28; pIC50 (NCI-H1651): 6.00; pIC50 (PANC-03-27): 6.32; pIC50 (NCI-H727): 6.03; pIC50 (DMS-273): 7.00; pIC50 (NCI-H1703): 6.66; pIC50 (Detroit 562): 5.89; pIC50 (8505C): 6.66; pIC50 (HCC1806): 5.84; pIC50 (ZR-75-30): 5.85; pIC50 (SW626): 6.37; pIC50 (EVSA-T): 6.85; pIC50 (UMUC3): 6.79
CC(C)CCN1c2nc(Nc3cc(F)c(O)c(F)c3)ncc2N(C)C(=O)C1C (stereo unspecified)	5.58	< 5.30	< 5.30	< 5.30	5.34	< 5.30	< 5.30	< 5.30	< 5.30	< 5.30	< 5.30	< 5.30	< 5.30	< 5.30	< 5.30	< 5.30	< 5.30	< 5.30	< 5.30	5.31	pIC50 (JEG-3): 5.43; pIC50 (T-24): < 5.30; pIC50 (NCI-H2347): < 5.30; pIC50 (NCI-H596): < 5.30; pIC50 (HuP-T3): < 5.30; pIC50 (MCF7): < 5.30; pIC50 (KYSE-70 cell line): < 5.30; pIC50 (NCI-H1651): < 5.30; pIC50 (PANC-03-27): 5.37; pIC50 (NCI-H727): < 5.30; pIC50 (DMS-273): < 5.30; pIC50 (NCI-H1703): < 5.30; pIC50 (Detroit 562): < 5.30; pIC50 (8505C): 5.35; pIC50 (HCC1806): < 5.30; pIC50 (ZR-75-30): < 5.30; pIC50 (SW626): 5.31; pIC50 (UMUC3): < 5.30
Nc1cccc2c1CN(C1CCC(=O)NC1=O)C2=O (stereo unspecified) [LENALIDOMIDE]	< 5.30	< 5.30	< 5.30	< 5.30	< 5.30	< 5.30	< 5.30	< 5.30	< 5.30	< 5.30	< 5.30	< 5.30	< 5.30	< 5.30	< 5.30	< 5.30	< 5.30	< 5.30	< 5.30	< 5.30	pIC50 (JEG-3): < 5.30; pIC50 (Kasumi 1): < 5.30; pIC50 (T-24): < 5.30; pIC50 (NCI-H2347): < 5.30; pIC50 (NCI-H596): < 5.30; pIC50 (HuP-T3): < 5.30; pIC50 (MCF7): < 5.30; pIC50 (KYSE-70 cell line): < 5.30; pIC50 (NCI-H1651): < 5.30; pIC50 (PANC-03-27): < 5.30; pIC50 (NCI-H727): < 5.30; pIC50 (DMS-273): < 5.30; pIC50 (NCI-H1703): < 5.30; pIC50 (Detroit 562): < 5.30; pIC50 (8505C): < 5.30; pIC50 (HCC1806): < 5.30; pIC50 (ZR-75-30): < 5.30; pIC50 (SW626): < 5.30; pIC50 (UMUC3): < 5.30
CN(C)C(=N)NC(=N)N [METFORMIN]	2.10	< 1.70	1.92	< 1.70	2.28	< 1.70	2.03	1.92	< 1.70	< 1.70	< 1.70	< 1.70	< 1.70	< 1.70	2.34	2.05	< 1.70	< 1.70	2.00	< 1.70	pIC50 (Kasumi 1): 3.42; pIC50 (NCI-H1651): 1.73; pIC50 (NCI-H727): < 1.70; pIC50 (DMS-273): 1.87; pIC50 (NCI-H1703): 1.76; pIC50 (Detroit 562): 1.78; pIC50 (8505C): 1.81; pIC50 (HCC1806): < 1.70; pIC50 (ZR-75-30): 1.83; pIC50 (SW626): < 1.70; pIC50 (UMUC3): 1.89
Cc1cn(-c2cc(NC(=O)c3ccc(C)c(Nc4nccc(-c5cccnc5)n4)c3)cc(C(F)(F)F)c2)cn1 [NILOTINIB]	< 5.70	< 5.70	< 5.70	< 5.70	< 5.70	< 5.70	< 5.70	< 5.70	< 5.70	< 5.70	< 5.70	< 5.70	< 5.70	< 5.70	< 5.70	< 5.70	< 5.70	< 5.70	< 5.70	< 5.70	pIC50 (JEG-3): < 5.70; pIC50 (Kasumi 1): 7.62; pIC50 (T-24): < 5.70; pIC50 (NCI-H2347): < 5.70; pIC50 (NCI-H596): < 5.70; pIC50 (HuP-T3): < 5.70; pIC50 (MCF7): < 5.70; pIC50 (KYSE-70 cell line): < 5.70; pIC50 (NCI-H1651): < 5.70; pIC50 (PANC-03-27): < 5.70; pIC50 (NCI-H727): < 5.70; pIC50 (DMS-273): < 5.70; pIC50 (NCI-H1703): 5.92; pIC50 (Detroit 562): < 5.70; pIC50 (8505C): < 5.70; pIC50 (HCC1806): < 5.70; pIC50 (ZR-75-30): < 5.70; pIC50 (SW626): < 5.70; pIC50 (UMUC3): < 5.70
CCN(CC)CCCCNc1ncc2cc(-c3cc(OC)cc(OC)c3)c(NC(=O)NC(C)(C)C)nc2n1 [PD-173074]	< 5.70	< 5.70	< 5.70	< 5.70	< 5.70	< 5.70	< 5.70	< 5.70	< 5.70	< 5.70	< 5.70	< 5.70	< 5.70	< 5.70	< 5.70	< 5.70	< 5.70	6.40	< 5.70	< 5.70	pIC50 (JEG-3): < 5.70; pIC50 (T-24): < 5.70; pIC50 (NCI-H2347): < 5.70; pIC50 (NCI-H596): < 5.70; pIC50 (HuP-T3): < 5.70; pIC50 (MCF7): < 5.70; pIC50 (KYSE-70 cell line): < 5.70; pIC50 (NCI-H1651): < 5.70; pIC50 (PANC-03-27): < 5.70; pIC50 (NCI-H727): < 5.70; pIC50 (DMS-273): < 5.70; pIC50 (Detroit 562): < 5.70; pIC50 (8505C): < 5.70; pIC50 (HCC1806): < 5.70; pIC50 (ZR-75-30): < 5.70; pIC50 (SW626): < 5.70; pIC50 (UMUC3): < 5.70
CS(=O)(=O)c1ccc(C(=O)Nc2ccc(Cl)c(-c3ccccn3)c2)c(Cl)c1 [VISMODEGIB]	< 5.00	< 5.00	< 5.00	< 5.00	< 5.00	< 5.00	< 5.00	< 5.00	< 5.00	< 5.00	< 5.00	< 5.00	< 5.00	< 5.00	< 5.00	< 5.00	< 5.00	< 5.00	< 5.00	< 5.00	pIC50 (JEG-3): < 5.00; pIC50 (T-24): < 5.00; pIC50 (NCI-H2347): < 5.00; pIC50 (NCI-H596): < 5.00; pIC50 (HuP-T3): < 5.00; pIC50 (MCF7): < 5.00; pIC50 (KYSE-70 cell line): < 5.00; pIC50 (NCI-H1651): < 5.00; pIC50 (PANC-03-27): < 5.00; pIC50 (NCI-H727): < 5.00; pIC50 (DMS-273): < 5.00; pIC50 (NCI-H1703): < 5.00; pIC50 (Detroit 562): < 5.00; pIC50 (8505C): < 5.00; pIC50 (HCC1806): < 5.00; pIC50 (ZR-75-30): < 5.00; pIC50 (SW626): < 5.00; pIC50 (UMUC3): < 5.00
